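Cells were grown in 96-well plates and exposed to each compound for 48 hours at five concentrations; endpoints were interpolated linearly between bracketing concentrations, or set to the highest concentration if not reached. GI50 is the concentration that inhibits growth by half. TGI marks complete inhibition of growth.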
What was measured:
Assay in all cases: growth of human tumour cells (NCI), 48 h
HT29 colon = test system: HT29 colon
NCI-H23 lung = test system: NCI-H23 lung
SN12C renal = test system: SN12C renal
SNB-19 CNS = test system: SNB-19 CNS
MOLT-4 leukemia = test system: MOLT-4 leukemia
HCC-2998 colon = test system: HCC-2998 colon
UO-31 renal = test system: UO-31 renal
HCT-15 colon = test system: HCT-15 colon
CCRF-CEM leukemia = test system: CCRF-CEM leukemia
SK-MEL-2 melanoma = test system: SK-MEL-2 melanoma

| Structure (SMILES) | TGI (HT29 colon) | TGI (NCI-H23 lung) | TGI (SN12C renal) | TGI (SNB-19 CNS) | TGI (MOLT-4 leukemia) | TGI (HCC-2998 colon) | TGI (UO-31 renal) | TGI (HCT-15 colon) | TGI (CCRF-CEM leukemia) | TGI (SK-MEL-2 melanoma) | GI50 (HT29 colon) | GI50 (NCI-H23 lung) | GI50 (SN12C renal) | GI50 (SNB-19 CNS) | GI50 (MOLT-4 leukemia) | GI50 (HCC-2998 colon) | GI50 (UO-31 renal) | GI50 (HCT-15 colon) | GI50 (CCRF-CEM leukemia) | GI50 (SK-MEL-2 melanoma) |
| --- | --- | --- | --- | --- | --- | --- | --- | --- | --- | --- | --- | --- | --- | --- | --- | --- | --- | --- | --- | --- |
| O=C1C(=O)c2ccccc2C(O)=C1CN(CCCl)CCCl | > 100 µM | > 100 µM | > 100 µM | > 100 µM | > 100 µM | > 100 µM | > 100 µM | > 100 µM | > 100 µM | > 100 µM | – | – | – | – | – | – | – | – | – | – |
| NC(CCP(=O)(O)CCC1C=CC=CC1)C(=O)O (configuration not stated) | > 100 µM | > 100 µM | > 100 µM | > 100 µM | > 100 µM | > 100 µM | > 100 µM | > 100 µM | > 100 µM | > 100 µM | – | – | – | – | – | – | – | – | – | – |
| Nc1ccc2c3c(n(CCCCl)c(=O)c2c1)-c1cc2c(cc1C3=O)OCO2 | > 100 µM | 25.8 µM | > 100 µM | > 100 µM | > 100 µM | > 100 µM | > 100 µM | > 100 µM | > 100 µM | > 100 µM | > 100 µM | 0.562 µM | > 100 µM | > 100 µM | 2.14 µM | > 100 µM | 48.1 µM | > 100 µM | > 100 µM | > 100 µM |
| Cc1cccc2[s+]snc12 | > 100 µM | > 100 µM | > 100 µM | > 100 µM | > 65.2 µM | > 100 µM | > 100 µM | > 72.3 µM | > 65.1 µM | > 100 µM | – | – | – | – | – | – | – | – | – | – |
| COc1cc(C2=C(C#N)C(N)OC3=C2COc2ccccc23)cc(OC)c1OC (configuration not stated) | > 100 µM | > 100 µM | 39.1 µM | 30.6 µM | > 100 µM | 56.8 µM | 12.7 µM | > 100 µM | > 100 µM | > 100 µM | – | – | – | – | – | – | – | – | – | – |
| COC1CC(OC2CCC3(C)C(CCC45CCC(C6=CC(=O)OC6)C(C)(CCC43)C5=O)C2)OC(C)C1O (configuration not stated) | > 100 µM | 48.3 µM | 61.9 µM | 63.6 µM | 65.7 µM | 44.4 µM | 35.8 µM | 52.2 µM | 50.6 µM | > 100 µM | – | – | – | – | – | – | – | – | – | – |
| O=[N+]([O-])c1ccc(Nc2nc3ccccc3s2)cc1 | > 100 µM | 34.5 µM | – | > 100 µM | 30.3 µM | 84 µM | 66.5 µM | > 100 µM | – | 81 µM | – | – | – | – | – | – | – | – | – | – |
| N=C(N)c1csc([C@@H]2O[C@H](CO)[C@@H](O)[C@H]2O)n1 | – | > 100 µM | > 100 µM | > 100 µM | > 100 µM | > 100 µM | > 100 µM | > 100 µM | > 100 µM | > 100 µM | – | – | – | – | – | – | – | – | – | – |
| CCC(=O)NC(Nc1ccc(O)cc1)(C(F)(F)F)C(F)(F)F | > 100 µM | > 100 µM | > 100 µM | > 100 µM | > 100 µM | > 100 µM | > 100 µM | > 100 µM | > 100 µM | > 100 µM | – | – | – | – | – | – | – | – | – | – |
| c1cn2cc(-c3ccc4ncn(C5CCCCC5)c4c3)nc(-c3ccc4c(c3)ncn4C3CCCCC3)c2n1 | 5.2 µM | – | 4.53 µM | 4.95 µM | 5.22 µM | 3.45 µM | 2.85 µM | – | 6.08 µM | 3.35 µM | 2.44 µM | – | 2.05 µM | 2.11 µM | 1.64 µM | 1.81 µM | 1.49 µM | – | 1.69 µM | 1.74 µM |
| CC(C)(C)[Si](C)(C)OCC1CCC(n2cnc3c(N)ncnc32)O1 (configuration not stated) | > 100 µM | > 100 µM | > 100 µM | > 100 µM | > 100 µM | – | > 100 µM | > 100 µM | > 100 µM | > 100 µM | – | – | – | – | – | – | – | – | – | – |
| NNc1nc2ccccc2s1 | > 100 µM | > 100 µM | > 100 µM | > 100 µM | > 100 µM | > 100 µM | > 100 µM | > 100 µM | > 100 µM | > 100 µM | – | – | – | – | – | – | – | – | – | – |
| CC12CCC(C(=O)N3CC=CCC3)(OC1=O)C2(C)C (configuration not stated) | > 100 µM | > 100 µM | > 100 µM | > 100 µM | > 100 µM | > 100 µM | > 100 µM | > 100 µM | > 100 µM | > 100 µM | – | – | – | – | – | – | – | – | – | – |

Source: PubChem BioAssay (NCI)
